Measured values as given in PMC5605198, “MELK is not necessary for the proliferation of basal-like breast cancer cells” (eLife, 2017).
Where two headings read alike, the source gives them in different places.

Tests used:
YES1 = YES1 (Homo sapiens, UniProt P07947); test: ICKP radiometric kinase assay; format: biochemical; settings: read-out: % AR (% kinase activity remaining)
TAO1 = TAO1 (Homo sapiens, UniProt Q7L7X3); test: ICKP radiometric kinase assay; format: biochemical; settings: read-out: % AR (% kinase activity remaining)
HIPK1 = HIPK1 (Homo sapiens, UniProt Q86Z02); test: ICKP radiometric kinase assay; format: biochemical; settings: read-out: % AR (% kinase activity remaining)
TIE2 = TIE2 (Homo sapiens, UniProt Q02763); test: ICKP radiometric kinase assay; format: biochemical; settings: read-out: % AR (% kinase activity remaining)
CK1 delta = CK1 delta (Homo sapiens, UniProt P48730); test: ICKP radiometric kinase assay; format: biochemical; settings: read-out: % AR (% kinase activity remaining)
CDK7 = CDK7 (Homo sapiens, UniProt P50613); test: Adapta kinase assay; settings: Adapta assay at [ATP]=apparent Km; read-out: Biochemical IC50 CDK7
PIM1 = PIM1 (Homo sapiens, UniProt P11309); test: ICKP radiometric kinase assay; format: biochemical; settings: for remaining activity at 1 µM: read-out: % AR (% kinase activity remaining)
PIM1, sequence (P11309 whole entry, species assumed): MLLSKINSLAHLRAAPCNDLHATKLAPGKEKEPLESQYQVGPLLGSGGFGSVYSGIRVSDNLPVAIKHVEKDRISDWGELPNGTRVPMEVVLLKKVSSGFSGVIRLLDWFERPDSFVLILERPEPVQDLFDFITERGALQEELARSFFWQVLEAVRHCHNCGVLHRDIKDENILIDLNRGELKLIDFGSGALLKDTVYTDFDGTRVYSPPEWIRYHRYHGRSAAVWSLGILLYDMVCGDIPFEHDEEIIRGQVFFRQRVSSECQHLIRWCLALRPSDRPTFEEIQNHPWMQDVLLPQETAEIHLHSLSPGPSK

CSK = CSK (Homo sapiens, UniProt P41240); test: ICKP radiometric kinase assay; format: biochemical; settings: read-out: % AR (% kinase activity remaining)
HER4 = HER4 (Homo sapiens, UniProt Q15303); test: ICKP radiometric kinase assay; format: biochemical; settings: read-out: % AR (% kinase activity remaining)
MAP4K3 = MAP4K3 (Homo sapiens, UniProt Q8IVH8); test: ICKP radiometric kinase assay; format: biochemical; settings: read-out: % AR (% kinase activity remaining)
LKB1 = LKB1 (Homo sapiens, UniProt Q15831); test: ICKP radiometric kinase assay; format: biochemical; settings: read-out: % AR (% kinase activity remaining)
TSSK1 = TSSK1 (Homo sapiens, UniProt Q9BXA7); test: ICKP radiometric kinase assay; format: biochemical; settings: read-out: % AR (% kinase activity remaining)
BT-549 = test: Cell proliferation assay (CellTiter-Glo); settings: Homo sapiens
TAK1 = TAK1 (Homo sapiens, UniProt O43318); test: ICKP radiometric kinase assay; format: biochemical; settings: read-out: % AR (% kinase activity remaining)
HIPK3 = HIPK3 (Homo sapiens, UniProt Q9H422); test: ICKP radiometric kinase assay; format: biochemical; settings: read-out: % AR (% kinase activity remaining)
HIPK3, sequence (Q9H422 whole entry): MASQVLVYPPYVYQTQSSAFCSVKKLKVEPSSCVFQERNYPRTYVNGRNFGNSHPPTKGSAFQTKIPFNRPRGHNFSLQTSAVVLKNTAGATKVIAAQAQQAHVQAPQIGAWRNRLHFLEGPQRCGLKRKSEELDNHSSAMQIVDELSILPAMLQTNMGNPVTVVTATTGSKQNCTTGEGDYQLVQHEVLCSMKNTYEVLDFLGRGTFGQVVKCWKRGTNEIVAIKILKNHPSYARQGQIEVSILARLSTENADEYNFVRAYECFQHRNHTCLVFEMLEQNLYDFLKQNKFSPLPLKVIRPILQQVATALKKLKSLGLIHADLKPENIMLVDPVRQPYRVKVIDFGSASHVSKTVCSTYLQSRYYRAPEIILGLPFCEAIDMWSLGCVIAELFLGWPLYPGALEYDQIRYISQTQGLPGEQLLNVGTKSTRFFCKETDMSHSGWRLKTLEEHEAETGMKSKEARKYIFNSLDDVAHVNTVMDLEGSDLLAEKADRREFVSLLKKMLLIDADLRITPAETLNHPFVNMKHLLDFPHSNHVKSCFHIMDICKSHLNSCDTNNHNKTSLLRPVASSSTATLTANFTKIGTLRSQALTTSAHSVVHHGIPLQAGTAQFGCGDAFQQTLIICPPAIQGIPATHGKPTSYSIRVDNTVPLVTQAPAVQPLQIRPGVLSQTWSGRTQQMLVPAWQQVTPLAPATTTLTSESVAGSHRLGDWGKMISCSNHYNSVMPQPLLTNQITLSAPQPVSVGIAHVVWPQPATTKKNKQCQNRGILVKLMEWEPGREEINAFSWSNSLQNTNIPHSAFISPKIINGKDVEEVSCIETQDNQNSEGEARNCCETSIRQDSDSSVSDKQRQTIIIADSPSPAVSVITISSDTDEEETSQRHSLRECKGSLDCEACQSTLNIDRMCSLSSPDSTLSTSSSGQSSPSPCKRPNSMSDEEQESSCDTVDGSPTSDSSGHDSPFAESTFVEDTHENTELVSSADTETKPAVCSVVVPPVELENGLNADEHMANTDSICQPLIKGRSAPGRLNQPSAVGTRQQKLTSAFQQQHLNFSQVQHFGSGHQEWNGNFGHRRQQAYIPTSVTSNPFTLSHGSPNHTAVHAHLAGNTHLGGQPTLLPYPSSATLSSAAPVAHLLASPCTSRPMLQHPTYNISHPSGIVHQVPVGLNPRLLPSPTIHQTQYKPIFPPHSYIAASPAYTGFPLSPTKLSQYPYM

p38 beta = p38 beta (Homo sapiens, UniProt Q15759); test: ICKP radiometric kinase assay; format: biochemical; settings: read-out: % AR (% kinase activity remaining)
p38 beta, sequence (Q15759 whole entry): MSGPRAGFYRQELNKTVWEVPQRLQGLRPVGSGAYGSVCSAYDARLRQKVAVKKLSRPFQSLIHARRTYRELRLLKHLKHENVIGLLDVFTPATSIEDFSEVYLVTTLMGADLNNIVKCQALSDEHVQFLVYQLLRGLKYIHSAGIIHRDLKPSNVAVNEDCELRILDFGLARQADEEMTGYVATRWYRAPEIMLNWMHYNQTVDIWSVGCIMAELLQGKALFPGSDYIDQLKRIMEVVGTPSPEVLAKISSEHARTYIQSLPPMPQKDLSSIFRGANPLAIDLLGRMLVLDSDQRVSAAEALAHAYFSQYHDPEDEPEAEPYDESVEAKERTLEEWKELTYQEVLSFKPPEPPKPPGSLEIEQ

TBK1 = TBK1 (Homo sapiens, UniProt Q9UHD2); test: ICKP radiometric kinase assay; format: biochemical; settings: read-out: % AR (% kinase activity remaining)
JNK3 = JNK3 (Homo sapiens, UniProt P53779); test: ICKP radiometric kinase assay; format: biochemical; settings: read-out: % AR (% kinase activity remaining)
PKC gamma = PKC gamma (Homo sapiens, UniProt P05129); test: ICKP radiometric kinase assay; format: biochemical; settings: read-out: % AR (% kinase activity remaining)
EIF2AK3 = EIF2AK3 (Homo sapiens, UniProt Q9NZJ5); test: ICKP radiometric kinase assay; format: biochemical; settings: read-out: % AR (% kinase activity remaining)
MPSK1 = MPSK1 (Homo sapiens, UniProt O75716); test: ICKP radiometric kinase assay; format: biochemical; settings: read-out: % AR (% kinase activity remaining)
MPSK1, sequence (O75716 whole entry): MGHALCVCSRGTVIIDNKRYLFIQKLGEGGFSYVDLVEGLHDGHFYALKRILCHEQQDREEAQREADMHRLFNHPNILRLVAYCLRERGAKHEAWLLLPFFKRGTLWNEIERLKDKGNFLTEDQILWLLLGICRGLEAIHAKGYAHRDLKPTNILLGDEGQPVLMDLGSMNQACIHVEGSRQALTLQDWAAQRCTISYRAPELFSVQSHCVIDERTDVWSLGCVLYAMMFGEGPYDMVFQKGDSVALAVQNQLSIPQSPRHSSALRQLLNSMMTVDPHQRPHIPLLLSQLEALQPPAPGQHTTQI

PDK1 = PDK1 (Homo sapiens, UniProt O15530); test: ICKP radiometric kinase assay; format: biochemical; settings: read-out: % AR (% kinase activity remaining)
MST4 = MST4 (Homo sapiens, UniProt Q9P289); test: ICKP radiometric kinase assay; format: biochemical; settings: read-out: % AR (% kinase activity remaining)
MST4, sequence (Q9P289 whole entry): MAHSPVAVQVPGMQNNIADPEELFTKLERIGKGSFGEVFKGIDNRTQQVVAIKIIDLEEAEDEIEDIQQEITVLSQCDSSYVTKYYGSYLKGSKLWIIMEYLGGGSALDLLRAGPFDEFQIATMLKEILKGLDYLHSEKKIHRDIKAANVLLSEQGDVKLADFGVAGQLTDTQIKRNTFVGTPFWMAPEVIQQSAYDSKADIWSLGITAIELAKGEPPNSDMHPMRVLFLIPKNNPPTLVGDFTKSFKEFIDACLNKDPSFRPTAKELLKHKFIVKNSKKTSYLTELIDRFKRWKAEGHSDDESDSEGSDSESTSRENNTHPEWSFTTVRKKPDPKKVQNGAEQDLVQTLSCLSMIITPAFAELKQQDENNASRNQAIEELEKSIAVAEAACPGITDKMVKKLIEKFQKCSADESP

PKA = PKA (Homo sapiens, UniProt P17612); test: ICKP radiometric kinase assay; format: biochemical; settings: read-out: % AR (% kinase activity remaining)
MLK3 = MLK3 (Homo sapiens, UniProt Q16584); test: ICKP radiometric kinase assay; format: biochemical; settings: read-out: % AR (% kinase activity remaining)
ERK8 = ERK8 (Homo sapiens, UniProt Q8TD08); test: ICKP radiometric kinase assay; format: biochemical; settings: read-out: % AR (% kinase activity remaining)
WNK1 = WNK1 (Homo sapiens, UniProt Q9H4A3); test: ICKP radiometric kinase assay; format: biochemical; settings: read-out: % AR (% kinase activity remaining)
CK1 gamma 2 = CK1 gamma 2 (Homo sapiens, UniProt P78368); test: ICKP radiometric kinase assay; format: biochemical; settings: read-out: % AR (% kinase activity remaining)
ROCK 2 = ROCK 2 (Homo sapiens, UniProt O75116); test: ICKP radiometric kinase assay; format: biochemical; settings: read-out: % AR (% kinase activity remaining)
IRAK1 = IRAK1 (Homo sapiens, UniProt P51617); test: ICKP radiometric kinase assay; format: biochemical; settings: read-out: % AR (% kinase activity remaining)
IRAK1, sequence (P51617 whole entry): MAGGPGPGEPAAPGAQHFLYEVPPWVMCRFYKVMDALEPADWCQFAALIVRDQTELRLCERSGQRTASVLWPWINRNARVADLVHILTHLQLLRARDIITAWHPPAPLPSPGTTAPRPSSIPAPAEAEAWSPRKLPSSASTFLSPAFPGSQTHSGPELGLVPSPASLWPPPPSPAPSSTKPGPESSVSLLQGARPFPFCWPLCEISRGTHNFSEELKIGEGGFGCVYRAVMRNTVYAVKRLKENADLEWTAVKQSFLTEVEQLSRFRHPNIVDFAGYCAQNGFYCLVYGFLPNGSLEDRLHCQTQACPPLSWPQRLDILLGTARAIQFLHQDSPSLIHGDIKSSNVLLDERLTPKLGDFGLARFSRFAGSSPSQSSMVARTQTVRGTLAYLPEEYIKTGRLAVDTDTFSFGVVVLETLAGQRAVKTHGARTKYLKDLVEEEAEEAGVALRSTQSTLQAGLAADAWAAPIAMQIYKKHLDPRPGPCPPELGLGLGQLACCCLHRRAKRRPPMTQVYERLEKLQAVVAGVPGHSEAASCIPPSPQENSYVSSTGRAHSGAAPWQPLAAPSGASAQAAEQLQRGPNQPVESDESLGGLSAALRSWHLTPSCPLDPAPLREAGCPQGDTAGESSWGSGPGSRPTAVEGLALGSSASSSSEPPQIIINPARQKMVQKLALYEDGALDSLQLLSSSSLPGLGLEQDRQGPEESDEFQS

MELK [1] = target: T1, MELK (Homo sapiens, UniProt Q14680); test: Z’-LYTE enzymatic assay; format: biochemical
T1 sequence (Q14680 whole entry): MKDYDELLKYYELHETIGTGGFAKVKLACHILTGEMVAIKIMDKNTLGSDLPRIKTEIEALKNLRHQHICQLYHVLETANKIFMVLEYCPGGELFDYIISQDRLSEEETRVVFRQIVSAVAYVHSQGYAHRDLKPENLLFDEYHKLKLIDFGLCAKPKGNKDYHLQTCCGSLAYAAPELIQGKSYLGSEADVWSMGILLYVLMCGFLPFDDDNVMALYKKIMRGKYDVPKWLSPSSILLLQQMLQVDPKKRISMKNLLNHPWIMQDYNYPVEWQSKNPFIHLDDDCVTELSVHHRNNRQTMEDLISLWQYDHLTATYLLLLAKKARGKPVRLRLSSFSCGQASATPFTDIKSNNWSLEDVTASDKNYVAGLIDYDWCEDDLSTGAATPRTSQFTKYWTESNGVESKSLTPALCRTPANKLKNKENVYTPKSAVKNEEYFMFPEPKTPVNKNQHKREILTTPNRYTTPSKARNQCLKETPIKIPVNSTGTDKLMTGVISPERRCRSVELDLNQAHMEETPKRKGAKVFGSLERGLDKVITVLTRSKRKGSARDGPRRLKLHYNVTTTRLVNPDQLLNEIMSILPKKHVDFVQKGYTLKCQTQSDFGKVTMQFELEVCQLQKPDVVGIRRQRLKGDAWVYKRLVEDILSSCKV

EPH-B4 = EPH-B4 (Homo sapiens, UniProt P54760); test: ICKP radiometric kinase assay; format: biochemical; settings: read-out: % AR (% kinase activity remaining)
EPH-B4, sequence (P54760 16-987): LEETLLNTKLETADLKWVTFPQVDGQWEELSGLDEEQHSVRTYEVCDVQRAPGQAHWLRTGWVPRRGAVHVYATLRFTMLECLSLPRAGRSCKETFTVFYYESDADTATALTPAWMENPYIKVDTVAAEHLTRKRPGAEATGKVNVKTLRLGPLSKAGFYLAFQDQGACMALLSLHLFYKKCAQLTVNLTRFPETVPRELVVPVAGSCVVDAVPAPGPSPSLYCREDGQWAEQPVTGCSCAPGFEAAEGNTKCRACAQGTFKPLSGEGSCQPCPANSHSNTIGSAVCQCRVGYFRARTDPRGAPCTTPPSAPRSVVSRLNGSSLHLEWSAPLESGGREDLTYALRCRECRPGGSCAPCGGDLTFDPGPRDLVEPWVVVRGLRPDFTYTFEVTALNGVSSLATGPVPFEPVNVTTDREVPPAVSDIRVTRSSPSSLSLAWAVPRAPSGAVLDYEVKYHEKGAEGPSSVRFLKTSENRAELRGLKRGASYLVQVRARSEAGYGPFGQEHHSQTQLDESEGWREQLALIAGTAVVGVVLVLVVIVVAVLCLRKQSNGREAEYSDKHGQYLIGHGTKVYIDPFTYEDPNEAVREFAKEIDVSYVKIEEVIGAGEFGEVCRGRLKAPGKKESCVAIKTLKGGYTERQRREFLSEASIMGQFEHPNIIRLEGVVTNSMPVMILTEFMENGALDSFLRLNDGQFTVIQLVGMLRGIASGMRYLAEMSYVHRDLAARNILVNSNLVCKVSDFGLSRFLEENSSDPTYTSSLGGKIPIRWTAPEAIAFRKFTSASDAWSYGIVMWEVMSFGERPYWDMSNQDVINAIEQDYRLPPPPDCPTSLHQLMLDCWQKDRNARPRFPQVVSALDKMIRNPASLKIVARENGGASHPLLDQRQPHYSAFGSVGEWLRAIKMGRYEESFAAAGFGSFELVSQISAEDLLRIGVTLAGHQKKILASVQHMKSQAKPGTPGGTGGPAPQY

MDA-MB-468 = test: Cell proliferation assay (CellTiter-Glo); settings: Homo sapiens
ZR-75-1 = test: Cell proliferation assay (CellTiter-Glo); settings: Homo sapiens, ZR-75-1, 72 h, read-out: 3-day antiproliferative IC50
mTOR = mTOR (Homo sapiens, UniProt P42345); test: Z’-LYTE enzymatic assay; settings: Z’-LYTE assay at [ATP]=apparent Km; read-out: Biochemical IC50 mTOR
IRR = IRR (Homo sapiens, UniProt P14616); test: ICKP radiometric kinase assay; format: biochemical; settings: read-out: % AR (% kinase activity remaining)
PRAK = PRAK (Homo sapiens, UniProt Q8IW41); test: ICKP radiometric kinase assay; format: biochemical; settings: read-out: % AR (% kinase activity remaining)
AMPK = test: ICKP radiometric kinase assay; settings: 1 μM
MELK [2] = target: T1, MELK; settings: ref Chung et al., 2012; cited from earlier work
[3] = BT-549, 72 h, read-out: 3-day antiproliferative IC50
[4] = BT-549, 168 h, read-out: 7-day antiproliferative IC50
[5] = MDA-MB-468, 72 h, read-out: 3-day antiproliferative IC50
[6] = MDA-MB-468, 168 h, read-out: 7-day antiproliferative IC50

## CN(C)C[C@H]1CC[C@H](N2C(=O)NCc3cnc4ccc(-c5cc(Cl)c(O)c(Cl)c5)cc4c32)CC1 [HTH-01-091, 9-(3,5-dichloro-4-hydroxyphenyl)-1-(trans-4-((dimethylamino)methyl)cyclohexyl)-3,4-dihydropyrimido[5,4 c]quinolin-2(1H)-one]
YES1
  remaining activity at 1 µM: 32%
TAO1
  remaining activity at 1 µM: 18%
HIPK1
  remaining activity at 1 µM: 24%
TIE2
  remaining activity at 1 µM: 71%
CK1 delta
  remaining activity at 1 µM: 36%
CDK7
  IC50: 1.23 µM
PIM1
  remaining activity at 1 µM: 1%
PIM1; radioactive filter-binding assay provided by the ICKP, read-out: Enzymatic IC50 PIM1
  IC50: 0.0606 µM
CSK
  remaining activity at 1 µM: 76%
HER4
  remaining activity at 1 µM: 84%
MAP4K3
  remaining activity at 1 µM: 55%
LKB1
  remaining activity at 1 µM: 100%
TSSK1
  remaining activity at 1 µM: 68%
BT-549; [3]
  IC50: 6.16 µM
BT-549; [4]
  IC50: 2.82 µM
TAK1
  remaining activity at 1 µM: 22%
HIPK3
  remaining activity at 1 µM: 25%
p38 beta
  remaining activity at 1 µM: 85%
TBK1
  remaining activity at 1 µM: 88%
JNK3
  remaining activity at 1 µM: 101%
PKC gamma
  remaining activity at 1 µM: 71%
EIF2AK3
  remaining activity at 1 µM: 114%
MPSK1
  remaining activity at 1 µM: 107%
PDK1
  remaining activity at 1 µM: 102%
MST4
  remaining activity at 1 µM: 96%
PKA
  remaining activity at 1 µM: 112%
MLK3
  remaining activity at 1 µM: 54%
ERK8
  remaining activity at 1 µM: 24%
WNK1
  remaining activity at 1 µM: 101%
CK1 gamma 2
  remaining activity at 1 µM: 80%
ROCK 2
  remaining activity at 1 µM: 82%
IRAK1
  remaining activity at 1 µM: 86%
MELK [1]; Z’-LYTE assay at [ATP]=apparent Km, read-out: Biochemical IC50 MELK
  IC50: 0.0105 µM
MELK [1]; measured by Z’LYTE biochemical assay, class symbols in Figure 2C, read-out: Potency (MELK)
  IC50: < 0.02 µM
MELK [1]; note column of Table 3, read-out: Note: MELK IC50
  IC50: 0.0105 µM
EPH-B4
  remaining activity at 1 µM: 104%
MDA-MB-468; [5]
  IC50: 4 µM
MDA-MB-468; [6]
  IC50: 2.71 µM
ZR-75-1
  IC50: > 10 µM
mTOR
  IC50: 0.632 µM
IRR
  remaining activity at 1 µM: 79%
PRAK
  remaining activity at 1 µM: 78%

## CC(=O)c1cnc2ccc(-c3cc(Cl)c(O)c(Cl)c3)nc2c1N[C@H]1CC[C@H](CN(C)C)CC1 [OTSSP167]
YES1
  remaining activity at 1 µM: 18%
TAO1
  remaining activity at 1 µM: 3%
AMPK
  % AR (% kinase activity remaining): 2%
HIPK1
  remaining activity at 1 µM: 0%
TIE2
  remaining activity at 1 µM: 3%
CK1 delta
  remaining activity at 1 µM: 6%
PIM1
  remaining activity at 1 µM: 10%
CSK
  remaining activity at 1 µM: 9%
HER4
  remaining activity at 1 µM: 4%
MAP4K3
  remaining activity at 1 µM: 1%
LKB1
  remaining activity at 1 µM: 83%
TSSK1
  remaining activity at 1 µM: 1%
BT-549; [3]
  IC50: 0.021 µM
BT-549; [4]
  IC50: 0.009 µM
TAK1
  remaining activity at 1 µM: 1%
HIPK3
  remaining activity at 1 µM: 0%
p38 beta
  remaining activity at 1 µM: 6%
TBK1
  remaining activity at 1 µM: 6%
JNK3
  remaining activity at 1 µM: 13%
PKC gamma
  remaining activity at 1 µM: 1%
EIF2AK3
  remaining activity at 1 µM: 7%
MPSK1
  remaining activity at 1 µM: 5%
PDK1
  remaining activity at 1 µM: 4%
MST4
  remaining activity at 1 µM: 5%
MELK [2]
  activity against MELK: subnanomolar
PKA
  remaining activity at 1 µM: 12%
ERK8
  remaining activity at 1 µM: 1%
WNK1
  remaining activity at 1 µM: 111%
CK1 gamma 2
  remaining activity at 1 µM: 10%
ROCK 2
  remaining activity at 1 µM: 49%
IRAK1
  remaining activity at 1 µM: 3%
EPH-B4
  remaining activity at 1 µM: 2%
MDA-MB-468; [5]
  IC50: 0.014 µM
MDA-MB-468; [6]
  IC50: 0.012 µM
ZR-75-1
  IC50: 0.055 µM
mTOR
  IC50: 0.0357 µM
IRR
  remaining activity at 1 µM: 6%
PRAK
  remaining activity at 1 µM: 16%
